Assay results as given in ChEMBL document CHEMBL1201862, “PubChem BioAssay data set” (2004).
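Following 48 hours of exposure in 96-well plates, responses at five concentrations were used to interpolate endpoints linearly. At the GI50, growth is halved.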 The source made the active and inactive calls. No stated cut-off is given here; in the data, active = GI50 up to about 1.1 µM and inactive = higher.

Assays:
Test in all cases: inhibition of tumour cell growth, NCI panel, 48 h
OVCAR-3 = system: OVCAR-3
NCI/ADR-RES = system: NCI/ADR-RES
DU-145 = system: DU-145
HCT-116 = system: HCT-116
CAKI-1 = system: CAKI-1
MCF7 = system: MCF7
M14 = system: M14
RXF 393 = system: RXF 393
Hs-578T = system: Hs-578T
UACC-62 = system: UACC-62
HCT-15 = system: HCT-15
SR = system: SR
OVCAR-5 = system: OVCAR-5
OVCAR-4 = system: OVCAR-4
IGROV-1 = system: IGROV-1
EKVX = system: EKVX
PC-3 = system: PC-3
OVCAR-8 = system: OVCAR-8
BT-549 = system: BT-549
NCI-H522 = system: NCI-H522
T47D = system: T47D
SK-MEL-2 = system: SK-MEL-2
HOP-62 = system: HOP-62
CCRF-CEM = system: CCRF-CEM
LOX IMVI = system: LOX IMVI
MDA-MB-435 = system: MDA-MB-435
HOP-92 = system: HOP-92
SF-539 = system: SF-539
SF-295 = system: SF-295
KM12 = system: KM12
U-251 = system: U-251
NCI-H226 = system: NCI-H226
SNB-75 = system: SNB-75
HL-60 = system: HL-60
SK-MEL-5 = system: SK-MEL-5
A549 = system: A549
SN12C = system: SN12C
UACC-257 = system: UACC-257
COLO 205 = system: COLO 205
TK-10 = system: TK-10
HCC 2998 = system: HCC 2998
SW-620 = system: SW-620
NCI-H23 = system: NCI-H23
HT-29 = system: HT-29
SNB-19 = system: SNB-19
A498 = system: A498
RPMI-8226 = system: RPMI-8226
MDA-MB-231 = system: MDA-MB-231
786-0 = system: 786-0
K562 = system: K562
SK-MEL-28 = system: SK-MEL-28
ACHN = system: ACHN
MDA-N = system: MDA-N
SF-268 = system: SF-268
NCI-H460 = system: NCI-H460
Malme-3M = system: Malme-3M
MOLT-4 = system: MOLT-4
UO-31 = system: UO-31
SK-OV-3 = system: SK-OV-3

In the case of `O=C1c2cc([N+](=O)[O-])sc2C(=O)c2cc([N+](=O)[O-])sc21`, the GI50 (OVCAR-3) is reported as 2.41 µM (inactive), the GI50 (NCI/ADR-RES) is reported as 3.62 µM (inactive) and the GI50 (DU-145) is reported as 10.3 µM (inactive). The GI50 (HCT-116) was 1.67 µM (inactive), the GI50 (CAKI-1) was 3.76 µM (inactive) and the GI50 (MCF7) was 2.58 µM (inactive). For the same molecule, the GI50 (M14) was 3.78 µM (inactive), the GI50 (RXF 393) was 6.03 µM (inactive) and the GI50 (Hs-578T) was 9.18 µM (inactive). The GI50 (UACC-62) was 1.87 µM (inactive), the GI50 (HCT-15) was 1.73 µM and the GI50 (SR) was 0.268 µM (active). For the same molecule, the GI50 (OVCAR-5) was 7.11 µM (inactive), the GI50 (OVCAR-4) was 4.51 µM (inactive) and the GI50 (IGROV-1) was 1.56 µM (inactive). For the same molecule, the GI50 (EKVX) was 3.13 µM (inactive), the GI50 (PC-3) was 4.6 µM (inactive) and the GI50 (OVCAR-8) was 5.79 µM (inactive). The GI50 (BT-549) was 2.05 µM (inactive), the GI50 (NCI-H522) was 1.44 µM (inactive) and the GI50 (T47D) was 3.55 µM (inactive). The GI50 (SK-MEL-2) was 6.7 µM (inactive), the GI50 (HOP-62) was 6.21 µM (inactive) and the GI50 (CCRF-CEM) was 0.711 µM (active). For the same molecule, the GI50 (LOX IMVI) was 1.36 µM (inactive), the GI50 (MDA-MB-435) was 2.1 µM (inactive) and the GI50 (HOP-92) was 1.85 µM (inactive). For the same molecule, the GI50 (SF-539) was 3.2 µM (inactive), the GI50 (SF-295) was 8.2 µM (inactive) and the GI50 (KM12) was 3.61 µM (inactive). For the same molecule, the GI50 (U-251) was 1.79 µM (inactive), the GI50 (NCI-H226) was 12.3 µM (inactive) and the GI50 (SNB-75) was 12.6 µM (inactive). The GI50 (HL-60) was 0.0957 µM (active), the GI50 (SK-MEL-5) was 2.51 µM (inactive) and the GI50 (A549) was 20.2 µM (inactive). The GI50 (SN12C) was 2.8 µM (inactive), the GI50 (UACC-257) was 5.16 µM (inactive) and the GI50 (COLO 205) was 2.02 µM (inactive). The GI50 (TK-10) was 5.89 µM (inactive), the GI50 (HCC 2998) was 3.05 µM (inactive) and the GI50 (SW-620) was 1.72 µM (inactive). The GI50 (NCI-H23) was 5.26 µM (inactive), the GI50 (HT-29) was 3.24 µM (inactive) and the GI50 (SNB-19) was 3.85 µM (inactive). For the same molecule, the GI50 (A498) was 16.2 µM (inactive), the GI50 (RPMI-8226) was 0.535 µM (active) and the GI50 (MDA-MB-231) was 2.07 µM (inactive). For the same molecule, the GI50 (786-0) was 2.52 µM (inactive), the GI50 (K562) was 0.432 µM (active) and the GI50 (SK-MEL-28) was 3.23 µM (inactive). The GI50 (ACHN) was 3.85 µM (inactive), the GI50 (MDA-N) was 2.34 µM (inactive) and the GI50 (SF-268) was 3.63 µM (inactive). The GI50 (NCI-H460) was 19.4 µM (inactive), the GI50 (Malme-3M) was 0.34 µM (active) and the GI50 (MOLT-4) was 2.84 µM (inactive). The GI50 (UO-31) was 3.19 µM (inactive) and the GI50 (SK-OV-3) was 10.1 µM (inactive).
With `CC[C@@]1(O)C(=O)OCc2c1cc1n(c2=O)Cc2c-1nc1ccccc1c2/C=N\NC(=O)C(N)=O` the GI50 (OVCAR-3) was 18.3 µM (inactive), the GI50 (NCI/ADR-RES) was 1.6 µM (inactive) and the GI50 (DU-145) was 0.0736 µM (active). For the same molecule, the GI50 (HCT-116) was 0.161 µM (active), the GI50 (CAKI-1) was 0.0655 µM (active) and the GI50 (MCF7) was 0.0189 µM (active). The GI50 (M14) was 0.208 µM (active), the GI50 (RXF 393) was 3.04 µM (inactive) and the GI50 (Hs-578T) was 56.9 µM (inactive). For the same molecule, the GI50 (UACC-62) was 0.0332 µM (active), the GI50 (HCT-15) was 14.7 µM and the GI50 (SR) was < 0.01 µM (active). The GI50 (OVCAR-5) was 25.8 µM (inactive), the GI50 (OVCAR-4) was 38.3 µM (inactive) and the GI50 (IGROV-1) was 4.79 µM (inactive). For the same molecule, the GI50 (EKVX) was 19.5 µM (inactive), the GI50 (PC-3) was 4.36 µM (inactive) and the GI50 (OVCAR-8) was 0.248 µM (active). The GI50 (BT-549) was 3.44 µM (inactive), the GI50 (NCI-H522) was 0.333 µM (active) and the GI50 (T47D) was < 0.01 µM (active). The GI50 (SK-MEL-2) was 29 µM (inactive), the GI50 (HOP-62) was 0.107 µM (active) and the GI50 (CCRF-CEM) was < 0.01 µM (active). The GI50 (LOX IMVI) was 0.0389 µM (active), the GI50 (MDA-MB-435) was 2.32 µM (inactive) and the GI50 (HOP-92) was 0.222 µM (active). For the same molecule, the GI50 (SF-539) was 0.0217 µM (active), the GI50 (SF-295) was 0.151 µM (active) and the GI50 (KM12) was > 92.3 µM (inactive). The GI50 (U-251) was 0.0398 µM (active), the GI50 (NCI-H226) was 0.219 µM (active) and the GI50 (SNB-75) was 0.558 µM (active). The GI50 (HL-60) was 0.0582 µM (active), the GI50 (SK-MEL-5) was 0.222 µM (active) and the GI50 (A549) was 0.859 µM (active). For the same molecule, the GI50 (SN12C) was 0.172 µM (active), the GI50 (UACC-257) was 14.4 µM (inactive) and the GI50 (COLO 205) was > 50.1 µM (inactive). For the same molecule, the GI50 (TK-10) was 43.6 µM (inactive), the GI50 (HCC 2998) was 2.25 µM (inactive) and the GI50 (SW-620) was 1.42 µM (inactive). For the same molecule, the GI50 (NCI-H23) was 0.0543 µM (active), the GI50 (HT-29) was 4.36 µM (inactive) and the GI50 (SNB-19) was 0.0383 µM (active). For the same molecule, the GI50 (A498) was 0.457 µM (active), the GI50 (RPMI-8226) was 0.61 µM (active) and the GI50 (MDA-MB-231) was 31.8 µM (inactive). The GI50 (786-0) was 0.0705 µM (active), the GI50 (K562) was 0.505 µM (active) and the GI50 (SK-MEL-28) was 17.8 µM (inactive). For the same molecule, the GI50 (ACHN) was < 0.0151 µM (active), the GI50 (MDA-N) was 5.61 µM (inactive) and the GI50 (SF-268) was < 0.0292 µM (active). For the same molecule, the GI50 (NCI-H460) was 0.0559 µM (active), the GI50 (Malme-3M) was 7.06 µM (inactive) and the GI50 (MOLT-4) was < 0.0138 µM (active). For the same molecule, the GI50 (UO-31) was 0.284 µM (active) and the GI50 (SK-OV-3) was 0.467 µM (active).
With `CSc1c(C#N)c(N)nc2c(/N=N\c3ccc(Cl)cc3)c(N)nn12` the GI50 (OVCAR-3) was 1.85 µM (inactive), the GI50 (NCI/ADR-RES) was 16.8 µM (inactive) and the GI50 (DU-145) was 2.24 µM (inactive). The GI50 (HCT-116) was 7.87 µM (inactive), the GI50 (CAKI-1) was 18.7 µM (inactive) and the GI50 (MCF7) was 2.17 µM (inactive). For the same molecule, the GI50 (M14) was 18.6 µM (inactive), the GI50 (RXF 393) was 2.55 µM (inactive) and the GI50 (Hs-578T) was 1.23 µM (inactive). The GI50 (UACC-62) was 3.33 µM (inactive), the GI50 (HCT-15) was 2.26 µM and the GI50 (SR) was 2.55 µM (inactive). The GI50 (OVCAR-5) was 17.3 µM (inactive), the GI50 (OVCAR-4) was 2.64 µM (inactive) and the GI50 (IGROV-1) was 1.85 µM (inactive). For the same molecule, the GI50 (EKVX) was 0.34 µM (active), the GI50 (PC-3) was 2.7 µM (inactive) and the GI50 (OVCAR-8) was 2.08 µM (inactive). The GI50 (BT-549) was 2.94 µM (inactive), the GI50 (NCI-H522) was 6.19 µM (inactive) and the GI50 (T47D) was 1.67 µM (inactive). For the same molecule, the GI50 (SK-MEL-2) was 2.87 µM (inactive), the GI50 (HOP-62) was 10.7 µM (inactive) and the GI50 (CCRF-CEM) was 2.17 µM (inactive). For the same molecule, the GI50 (LOX IMVI) was 1.52 µM (inactive), the GI50 (MDA-MB-435) was 9.89 µM (inactive) and the GI50 (HOP-92) was 3.29 µM (inactive). For the same molecule, the GI50 (SF-539) was 5.85 µM (inactive), the GI50 (SF-295) was 22.9 µM (inactive) and the GI50 (KM12) was 6.14 µM (inactive). For the same molecule, the GI50 (U-251) was 4.33 µM (inactive), the GI50 (NCI-H226) was 16.9 µM (inactive) and the GI50 (SNB-75) was 7.41 µM (inactive). The GI50 (HL-60) was 2.31 µM (inactive), the GI50 (SK-MEL-5) was 14.6 µM (inactive) and the GI50 (A549) was 25 µM (inactive). The GI50 (SN12C) was 3.17 µM (inactive), the GI50 (UACC-257) was 3.27 µM (inactive) and the GI50 (COLO 205) was 13.5 µM (inactive). The GI50 (TK-10) was 13.3 µM (inactive), the GI50 (HCC 2998) was 5.94 µM (inactive) and the GI50 (SW-620) was 2.16 µM (inactive). For the same molecule, the GI50 (NCI-H23) was 2.6 µM (inactive), the GI50 (HT-29) was 3.34 µM (inactive) and the GI50 (SNB-19) was 17.3 µM (inactive). The GI50 (A498) was 39.2 µM (inactive), the GI50 (RPMI-8226) was 2.6 µM (inactive) and the GI50 (MDA-MB-231) was 2.04 µM (inactive). For the same molecule, the GI50 (786-0) was 2.86 µM (inactive), the GI50 (K562) was 2.08 µM (inactive) and the GI50 (SK-MEL-28) was 2.58 µM (inactive). For the same molecule, the GI50 (ACHN) was 5.66 µM (inactive), the GI50 (MDA-N) was 8.04 µM (inactive) and the GI50 (SF-268) was 2.39 µM (inactive). For the same molecule, the GI50 (NCI-H460) was 11.1 µM (inactive), the GI50 (Malme-3M) was 6.08 µM (inactive) and the GI50 (MOLT-4) was 2.44 µM (inactive). The GI50 (UO-31) was 2.13 µM (inactive) and the GI50 (SK-OV-3) was 33 µM (inactive).
